According to patent publication US9656981B2, “Peripherally-acting cannabinoid receptor agonists for chronic pain” (The Regents of the University of California, priority 2012, dated 2017):
Read-outs that look alike come from different tables or passages of the source.

Experiments:
[1] = target: CB1R (Homo sapiens, UniProt P21554); assay: CB1R radioligand displacement binding assay (CP55940 radioligand)
Experimental: Heterologous competition binding assays were performed to calculate receptor affinities. Unlabeled SR141716 or SR144528 were used as appropriate controls for non-specific binding (NSB) in the assay. Calculation of the equilibrium dissociation constant (Ki) was performed using the Cheng-Prusoff equation.

[2] = tested on: rats; assay: Catalepsy (ring) test of the tetrad; type: in vivo, rat; conditions: 1-3 hrs
Experimental: Catalepsy (ring) test. Catalepsy was determined with a ring immobility test^154, modified for rats^139, 153. Rats are placed with their forepaws on a horizontal metal ring (12 cm diameter) at a height that allows their hindpaws to just touch the bench surface. Immobility is recorded as the time for the rat to move off the ring with a 100 s cutoff. Rats are tested before vehicle/drug injections and again at various times after injection.

[3] = target: CB2R (Homo sapiens, UniProt P34972); assay: CB2R radioligand displacement binding assay (CP55940 radioligand)
CB2R, sequence (P34972 whole entry): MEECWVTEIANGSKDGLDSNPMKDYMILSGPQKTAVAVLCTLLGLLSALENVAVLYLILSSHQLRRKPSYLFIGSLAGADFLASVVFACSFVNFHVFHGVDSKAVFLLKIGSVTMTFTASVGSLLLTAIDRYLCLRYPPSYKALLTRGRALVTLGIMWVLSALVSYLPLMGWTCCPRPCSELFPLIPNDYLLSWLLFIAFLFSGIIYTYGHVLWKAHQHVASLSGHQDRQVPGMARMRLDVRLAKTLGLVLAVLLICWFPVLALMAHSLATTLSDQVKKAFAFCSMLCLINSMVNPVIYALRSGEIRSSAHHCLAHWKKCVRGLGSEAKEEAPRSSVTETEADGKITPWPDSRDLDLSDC
Experimental: Detailed radioligand displacement assays (using the well-characterized CBR agonist […] as the radioligand) were conducted to determine the affinity (Ki) of the test compounds for CB1R and CB2R as has been previously described by our group^112,113. Heterologous competition binding assays were performed to calculate receptor affinities. Unlabeled SR141716 or SR144528 were used as appropriate controls for non-specific binding (NSB) in the assay. Calculation of the equilibrium dissociation constant (Ki) was performed using the Cheng-Prusoff equation.

[4] = target: human CB1R (hCB1R) (Homo sapiens, UniProt P21554); assay: human CB1R (hCB1R) calcium flux assay; type: cell-based; conditions: Table 1; read-out: Ca Flux % Emax
human CB1R (hCB1R), sequence (P21554 whole entry): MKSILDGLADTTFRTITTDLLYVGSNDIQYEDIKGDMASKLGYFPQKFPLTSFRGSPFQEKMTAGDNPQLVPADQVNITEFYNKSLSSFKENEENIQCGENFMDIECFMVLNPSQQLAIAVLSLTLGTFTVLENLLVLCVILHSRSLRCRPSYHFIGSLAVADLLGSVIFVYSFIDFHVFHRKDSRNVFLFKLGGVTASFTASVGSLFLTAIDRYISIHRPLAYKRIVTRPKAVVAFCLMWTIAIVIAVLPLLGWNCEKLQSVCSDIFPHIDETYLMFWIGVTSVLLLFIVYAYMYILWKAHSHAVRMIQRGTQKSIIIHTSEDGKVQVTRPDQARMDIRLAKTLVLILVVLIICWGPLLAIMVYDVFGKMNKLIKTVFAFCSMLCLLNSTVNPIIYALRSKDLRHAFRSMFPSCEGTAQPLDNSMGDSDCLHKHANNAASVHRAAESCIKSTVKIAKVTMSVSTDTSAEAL
Description: Compounds were first screened for: a) CB1R and CB2R binding, b) CB1R agonist activity using the human CB1R (hCB1R) calcium flux assay, and c) BBB permeability using the Madin-Darby canine kidney (MDCK-MDR1) cell line assay.
The calcium 3 dye assays were run according to manufacturer's specifications (http://www.moleculardevices.com/Products/Assay-Kits/GPCRs/FLIPR-Calcium.html) and as reported in our previous publications^112,113. Briefly, wells of black clear-bottom 96-well tissue culture-treated plates are seeded with 20,000 cells the afternoon before assay. The day of assay, the cells are incubated with the Ca^2+ indicator dye for 1 hr @ 37° C. For antagonist assays, the test compound is preincubated with the cells during the last 10 min of the dye incubation. Basal or unstimulated fluorescence intensity is recorded in the FlexStation @ 37° C. for 13 sec followed by the addition of test compound or CP 55,940 (depending on the assay endpoint). Fluorescence intensity is recorded for an additional 47 sec. The effect of test compound in each well is determined by subtracting the minimum from the maximum fluorescence during the 47-sec recording period.

[5] = tested on: rats; assay: Tail-flick test of the tetrad; type: in vivo, rat; conditions: 0.3 mg/kg, intraperitoneal
Description: A modified Hargreaves apparatus (Model 390, IITC Instr.) is used to measure tail-flick latency (TFL). Radiant heat is directed to a point 3 cm from the tail tip and the TFL observed and timed with a photo cell counter. The intensity of the radiant heat is adjusted for a baseline TFL of approximately 5-7 seconds for naïve rats, with a 25 s cutoff set to avoid tissue damage (see FIG. 3).

[6] = tested on: CFA-induced mechanical allodynia; assay: CFA chronic inflammation, mechanical allodynia; type: in vivo, rat; conditions: systemic injection
Experimental: (§1) Rats are placed in a plastic-walled cage (10×20×13 cm) with a metal mesh floor (0.6×0.6 cm holes) and allowed to acclimate for 10 min. The amount of pressure (g) needed to evoke a hindpaw withdrawal response is measured 4 times on each paw separated by 30-s intervals using a von Frey-type digital meter (Model 1601C, IITC Instr.). Results of 4 tests/session are averaged for each paw.
Compounds were tested in a well-established model of chronic inflammation. In this model, unilateral intraplantar injection of complete Freund's adjuvant (CFA) leads to long-lasting symptoms of mechanical allodynia and thermal hyperalgesia of the affected hindpaw, which is alleviated by local, […] administration of CB1R ligands^125, 155. […] This is consistent with the higher CB1R affinity of our novel compound 13339-145-35 (Compound 9, see Table 1) compared with the AstraZeneca AZ11713908 compound^125.

[7] = tested on: sciatic nerve entrapment (SNE) neuropathy; assay: SNE neuropathy, mechanical allodynia (von Frey); type: in vivo, rat; conditions: 0.3 mg/kg
Experimental: The effectiveness of CBR agonists was tested for alleviating the painful symptoms of neuropathy induced by unilateral sciatic nerve entrapment (SNE)^131. The peripheral neuropathy induced by SNE is highly comparative to that of chronic constriction injury (CCI), which uses chromic gut suture materials instead of polyethylene cuffs^132. […] This increased excitability is at least in part attributable to injury-induced post-transcriptional transport of the voltage-gated sodium channel 1.8 (NaV1.8) mRNA, axonal accumulation of NaV1.8 mRNA, and its local protein translation leading to the increased NaV1.8 functional expression in injured nerve^136. The hyperexcitability and ectopic burst discharge of primary sensory neurons are widely considered to be the major contributors to pain symptomatology of peripheral neuropathy models. The SNE-induced mechanical allodynia effectively models the most common complaint of human neuropathy patients of dynamic mechanical allodynia. Behavioral measurements of mechanical sensitivity were conducted before and after induction of SNE as follows:
as §1

[8] = tested on: rats; assay: Rotarod test of the tetrad; type: in vivo, rat; conditions: 2-3 hr
Experimental: Rats were tested for motor function and the ataxic effects of novel drugs as described previously^151-153. To determine drug effects on motor coordination, rats are trained 72 h before the test (3 sessions 24 h apart) to remain for at least 180 s on a rotarod revolving at an acceleration of 4-40 revs over 5 min). Rats are tested immediately before vehicle or drug injections and tested again at 2, 6, 24 and 48 hrs after injection. The time for which the rats are able to remain on the rotarod is recorded up to a cut-off of 5 min.

[9] = tested on: rats; assay: Hypothermia test of the tetrad; type: in vivo, rat
Experimental: Rats are acclimated to a plastic restrainer apparatus (Model RTV-180 Braintree Scientific Inc.) on the day of testing by placing them in the restrainer twice for 5 min separated by 20 min. Baseline core temperature is taken before treatment, and the rectal temperature is measured again at various times after injection of the CB1R ligands.

[10] = tested on: CFA-induced heat hyperalgesia; assay: CFA chronic inflammation, heat hyperalgesia (Hargreaves); type: in vivo, rat; conditions: systemic injection
Experimental: The Hargreaves method was used to assess paw-withdrawal latency to a thermal nociceptive stimulus^175. Rats were acclimated (10 min) within Plexiglas enclosures (10×20×20 cm) on a clear glass plate preheated to 30° C. A radiant heat source (adjustable infrared lamp) and a timer were used to measure paw withdrawal latency (Model 390, IITC Instruments). Each paw was tested 4 times at 30% maximal intensity allowing 5 min between each test. […] Results of 4 tests were averaged for each paw for that session.

[11] = tested on: rats; assay: Tetrad assays overall (CNS-mediated side effects); type: in vivo, rat; conditions: doses effective against neuropathy symptoms, i.p.
Description: The CNS-mediated psychotropic actions of CB1R ligands represent their most troubling side effects. The cannabinoid agonists such as Δ9-THC or anandamide produce a complex pattern of behavioral effects which are unique to this class of compounds: at low doses a mixture of stimulatory and depressant effects is observed, while at higher doses central depression predominates^137,138. The tetrad of tests which is classically predictive of cannabinoid receptor activation includes: catalepsy, motor performance, hypothermia, and analgesia tests^139-141. Effects observed in all four tests have been thought to be mediated by the activation of central CBRs, but it is now well established that peripheral CBRs make a major contribution to the analgesic effects of cannabinoids^142-144. The catalepsy and motor deficits induced by CB1R ligands are likely produced by their action on CB1Rs within the basal ganglia and cerebellum, while hypothermia is thought to be mediated mainly through hypothalamic and brainstem CB1Rs^137, 145-150. […] Therefore, “tetrad” tests were used to determine whether the novel CB1R ligands have antinociceptive effects and side-effect profile consistent with the activation of central CB1Rs. […]

CB1R, sequence (P21554 whole entry): as above

Compound | Ki [1] [nM] | Ki ([1]; Table 1, CP55940 radioligand, read-out: CB1_KI_CP) [nM] | Catalepsy % change from pre-drug (0.3 mg/kg) at 1-3 hrs [2] [%] | Ki [3] [nM] | Emax [4] [%] | effect in the tail-flick assay [5] | effect on CFA-induced mechanical allodynia [6] | effect on SNE-induced mechanical allodynia (ipsilateral hindpaw withdrawal thresholds) ([7]; systemic injection) | SNE Neuropath Assay-% return to pre-drug (0.3 mg/kg) contralateal threshold at 2-3 h ([7]; 2-3 h) [%] | Rotarod % change from pre-drug (0.3 mg/kg) at 2-3 hr [8] [%] | effect in the hypothermia assay ([9]; 0.3 mg/kg, intraperitoneal) | Hypothermia % change from predrug (0.3 mg/kg) at 2-3 hr ([9]; 2-3 hr) [%] | effect on CFA-induced heat hyperalgesia [10] | CNS side effects in the tetrad assays [11]
COc1ccc(/C=C2\C=C(CCN3CCOCC3)c3ccccc32)c2ccccc12 [Compound 10, 4-{2-[(1E)-2-[(4-methoxy-naphthalen-1-yl)methylidene]-1H-inden-3-yl]ethyl} morpholine] | 2.4 | 2.43 | 0 | 4.17 | 114 | small, but significant effects | relatively small effect | anti-allodynic effects | 103.2 | 0 | small difference | 0 | robust relief | 
CCCCCCC(C)(C)c1cc(O)c2c(c1)OC(C)(C)[C@@H]1CC=C(CO)C[C@@H]21 [HU-210] |  |  |  |  |  |  |  |  |  |  |  |  |  | potent CNS side effects
